Assays:
cabbage leaf spot = experiment: Toxicity test of leaf spot of cabbage (pot test on sprayed seedlings, EC50 and co-toxicity coefficient by Sun Yunpei's method); type: in vivo; details: for EC50 (PPM): cabbage seedlings, sprayed 24 h before inoculation, disease index after seven days; for TTI: toxicity index, cabbage leaf spot
Protocol: (§1) The toxicity index of each of the formulations and the co-toxicity coefficient (CTC value) of the mixed formulation were calculated according to Sun Yunpei's method. […] Actual toxicity index (ATI) = (standard formulation EC50/testing formulation EC50)*100 [formula]
(§2) Theoretical toxicity index (TTI) = (toxicity index of formulation A * percentage of A in the mixed formulation) + (toxicity index of formulation B * percentage of B in the mixed formulation) Co−toxicity coefficient (CTC) = [actual toxicity index(ATI) of the mixed formulation/theoretical toxicity index (TTI)of the mixed formulation]*100 [formula]
(§3) The samples were selected from the cabbage seedlings in the same growing period. Three pots were selected for each treatment and each pot was sprayed with 5 mL with a potter spray tower at the pressure of 50 PSI and each chemical was set for 12 concentration gradients. Inoculation was carried out 24 hours after the treatment of the formulations. The conidiums from the leaves with cabbage leaf spot (collected from the field) was spread evenly on the cabbage seedlings, and the cabbage seedlings were then put in the green house for culturing.
(§4) Seven days later, the disease index for the whole plant was studied according to the pathological grading standard of cabbage leaf spot. The prevention and control efficacy was determined, and the generalized least square method was then applied to calculate the half maximal effective concentration EC50. The Sun Yunpei's method was applied to calculate the co-toxicity coefficient (CTC). Table 3: Toxicity Test Result of Applying the Present Invention to Prevent and Control Leaf Spot of Cabbage

potato gray mold = experiment: Toxicity test of potato gray mold (pot test on sprayed seedlings, EC50 and co-toxicity coefficient by Sun Yunpei's method); type: in vivo; details: for EC50 (PPM): potato seedlings, sprayed 24 h before inoculation, disease index after seven days; for TTI: toxicity index, potato gray mold
Protocol: as §1, §2
(§5) The samples were selected from potato seedlings in the same growing period of three to four leaf stage. Three pots were selected for each treatment and each pot was sprayed with 5 mL with a potter spray tower at the pressure of 50 PSI and each chemical was set for 12 concentration gradients. Inoculation was carried out 24 hours after the treatment of the formulations. The conidiums from the leaves with potato gray mold (collected from a field) was spread evenly on the potato seedlings, and then the potato seedlings were put in the green house for culturing.
as §4, with “potato gray mold.” for “cabbage leaf spot.”, “was” for “was then”, “2:” for “3:”, “Potato Gray Mold” for “Leaf Spot of Cabbage”

sclerotia sclerotium = details: after applying it once in a suitable period; cited from earlier work
potato cinerea = experiment: Activity of preventing and controlling grey mould of potato (Colby synergy test, visual observation); type: in vivo; details: Solanum tuberosum, potato seedlings in pots, read-out: Observed activity (%)
Text: A synergistic effect exists when the fungicidal activity of the active compound composition is greater than the sum of the activities of the active compounds applied individually. The expected activity for a given combination of two active compounds can be calculated in accordance with Colby's formula (refer to S.R. Colby, "Calculating Synergistic and Antagonistic Responses of Herbicide Combinations", Weeds 1967, 15, 20-22) as follows: • If X denotes the activity when using active compound A at an application rate of mg/ha or in a concentration of mppm; • Y denotes the activity when using active compound B at an application rate of ng/ha or in a concentration of nppm; • E denotes the activity when using active compounds A and B at application rates of m and ng/ha or in concentration of m and n ppm;
Then: E = X + Y−(X⋅Y)/(100) [formula]
The leaves of the potato seedlings in pots were sprayed with the suspension concentrate in a range of concentrations of the active compounds.
The next day, the treated plants were inoculated with a spore suspension of potato cinerea. The pots were then allowed to stand for 24 hours in a room at 20-22 °C and with high humidity (90-95%). During this period, the spores germinated and the germ tubes penetrated into the leaf tissues. […] Later, the development of cinerea on the leaves was determined by visual observation.

tomato downy mildew = experiment: Toxicity test of downy mildew of tomato (pot test on sprayed seedlings, EC50 and co-toxicity coefficient by Sun Yunpei's method); type: in vivo; details: for EC50 (PPM): tomato seedlings, sprayed 24 h before inoculation, disease index after seven days; for TTI: toxicity index, tomato downy mildew
Protocol: as §1, §2
as §3, with “tomato” for “cabbage”, “set” for “set for”, “tomato downy mildew” for “cabbage leaf spot”
as §4, with “tomato downy mildew.” for “cabbage leaf spot.”, “4:” for “3:”, “Tomato Downy Mildew” for “Leaf Spot of Cabbage”

wheat downy mildew = experiment: Toxicity test of wheat downy mildew (pot test on sprayed seedlings, EC50 and co-toxicity coefficient by Sun Yunpei's method); type: in vivo; details: for TTI: toxicity index, wheat downy mildew; for EC50 (PPM): wheat seedlings, sprayed 24 h before inoculation, disease index after seven days
Protocol: as §1, §2
as §5, with “wheat” for “potato”, “wheat downy mildew” for “potato gray mold”
as §4, with “wheat downy mildew.” for “cabbage leaf spot.”, “was” for “was then”, “1:” for “3:”, “Wheat Downy Mildew” for “Leaf Spot of Cabbage”

| SMILES | EC50 (PPM) (cabbage leaf spot) | TTI (cabbage leaf spot) | EC50 (PPM) (potato gray mold) | TTI (potato gray mold) | control effect and disease index (sclerotia sclerotium) | activity at 8 ppm (potato cinerea; Concentration 8 ppm) [%] | EC50 (PPM) (tomato downy mildew) | TTI (tomato downy mildew) | TTI (wheat downy mildew) | EC50 (PPM) (wheat downy mildew) | activity at 40 ppm (potato cinerea; Concentration 40 ppm) [%] |
| --- | --- | --- | --- | --- | --- | --- | --- | --- | --- | --- | --- |
| O=C(Nc1ccccc1-c1ccc(Cl)cc1)c1cccnc1Cl [Boscalid, 2-chloro-N-(4'-chlorobiphenyl-2-yl) nicotinamide] | 26.13 | 100 | 15.23 | 100 | more than 80% | 28 | 22.24 | 100 | 100 | 16.23 |  |
| N#Cc1c(Cl)c(Cl)c(Cl)c(C#N)c1Cl [Chlorothalonil, 2,4,5,6-tetrachloro-1,3-benzenedicarbonitrile] | 38.03 | 68.71 | 38.03 | 68.71 |  |  | 32.27 | 68.91 | 86.5 | 18.76 | 0 |
